One assay has as its target KRas G12D/Q61H double mutant (Homo sapiens (Human), UniProt P01116, G12D/Q61H). Nature of the assay: Ras GTP binding domain inhibition assay (labeled GTP). As to conditions: 20 μM. The procedure:
Buffer-I: • 50 mM Tris, pH 7.5 • 150 mM NaCl (optional) • 1 mM MgCl2 • 1 mM DTT. • KRas G12D mutant protein was expressed as a His-tagged protein. Purified His-KRas G12D protein was diluted in buffer-I to a final concentration of 3-10 μg/ml. • 200 μl of the diluted His-KRas G12D protein was added to a nickel coated 96 well plate and incubated overnight at 4° C. • The next day, wells were washed 3× in 200 μl of Buffer-I. • Then 200 μl of Buffer-I were added to each well in the presence of 1% DMSO. • Tested compounds were added to the protein-coated wells at a concentration of 20 μM, and incubated for 3 hours at room temperature. While performing IC50 measurements a serial dilution of all tested concentrations was prepared.
Then 22 μl of Cy3-GTP or Cy5-GTP was added to each well. The labeled GTP was incubated for 45 min. at room temperature. • Following GTP incubation, wells were washed 3× in Buffer-I, and 200 μl of Buffer-I were added to each well. • Following washes, the amount of bound labeled-GTP was measured with an Eppendorf AF2200 plate reader.
By substituting KRas G12D mutant protein with KRas G12C mutant, KRas wild type, KRas Q61H mutant, KRas G12D/Q61H double mutant or KRas G12C/Q61H double mutant under the assay conditions described above, KRas G12C mutant KRas wild type, KRas Q61H mutant, KRas G12D/Q61H double mutant and KRas G12C/Q61H double mutant inhibition, respectively, were each determined.
Sequence of KRas G12D/Q61H double mutant (P01116-2 other isoform, or with tags, fused parts or gaps G12D/Q61H): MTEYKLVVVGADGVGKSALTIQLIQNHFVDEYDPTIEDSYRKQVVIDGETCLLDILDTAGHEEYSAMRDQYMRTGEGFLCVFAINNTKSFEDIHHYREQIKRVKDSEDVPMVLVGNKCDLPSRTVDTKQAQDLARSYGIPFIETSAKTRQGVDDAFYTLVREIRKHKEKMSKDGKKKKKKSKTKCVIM
`O=C(COc1ccc(F)cc1F)Nc1nnc(-c2ccccn2)[nH]1` [drawing 2459]: the “KRas G12D Q61H % Inh.” value was “C (C = 51-75% inhibition)”.

Still in this assay, the particulars now being: 20 μM compound; KRas G12D/Q61H double mutant.
On to `O=C(Cc1ccc2c(c1)OCCO2)Nc1nc(-c2ccccn2)cs1` [drawing 3247], for which the “% Inhibition at 20 μM of K-Ras mutant and wild-type protein, KRas G12D Q61H” value is given as “A (1-25% inhibition)”.

The same assay, now with this note: 20 μM compound; KRas G12D/Q61H double mutant; read-out: % Inhibition at 20 μM of K-Ras mutant and wild-type protein, KRas G12D Q61H.
With `COc1ccc(-c2cc(NC(=O)C3CC(=O)N(C(C)c4ccccc4)C3)ccc2OC)cc1` (stereo not shown), the inhibition at 20 µM lay in the range of 1 to 25%.
Consider `COc1ccc(CCN2CCN(c3ccc(C#N)c(C(F)(F)F)c3)CC2)cc1`, for which the inhibition at 20 µM is 25 to 50%.
On the same count and under the same terms, the figure for `CC(C)=CC1C(C(=O)NCc2ccc(OCC(F)(F)F)nc2)C1(C)C` (stereo not shown) is 25 to 50%; for `CCN1CCN(Cc2ccc(NC(=O)c3cc(OC)c(OC)cc3OC)cc2)CC1` it is 1 to 25%; for `CCCN(CC1CC1)C(=O)COC(=O)c1c(C)nc(-c2cccs2)nc1SC` it is 1 to 25%.
Still for that read-out and setting: the figure for `Cc1occc1-c1nnc(SCC2CCN(C(=O)OCc3ccccc3)CC2)o1` is 25 to 50%; for `CC(C)c1ccc(-c2nc(C(=O)NC(C)c3ccccn3)cs2)cc1` (stereo not shown) it is 25 to 50%; for `CCOC(=O)c1c(-c2ccc(C)cc2)csc1NC(=O)CN(C)CC(=O)NC1CCC(O)CC1` (stereo not shown) it is 25 to 50%.
Still for that read-out and setting: as for `CC(C)c1ccc(CSc2nnc(SCCNC(=O)C3CCCC3)s2)cc1`, the figure is 51 to 75%; as for `CCOc1ccc(CSc2nnc(-c3ccco3)n2-c2ccccc2)cc1OCC`, 25 to 50%.
Take `COC(=O)c1cc(Cn2nc(C(=O)OC)c(Br)c2C2CC2)c(C)s1`: the inhibition at 20 µM was 25 to 50%.
As to `COC(=O)C(NCc1ccc(-c2ccc(Cl)cc2)o1)c1ccccc1` (stereo not shown), the inhibition at 20 µM was in the range of 25 to 50%.
Regarding `CC(COc1ccc(Oc2ccccc2)cc1)Oc1ccc(C(F)(F)F)cn1` (stereo not shown), the inhibition at 20 µM is 51 to 75%.
On the same count and under the same terms, as for `CCCCc1ccc([N+]2=C3SCCCN3CC2(O)c2ccc(C)cc2)cc1` (stereo not shown), the figure is 25 to 50%; as for `COc1cc(C(=O)NCC(c2cccs2)N(C)C)ccc1OCc1ccccc1Cl` (stereo not shown), 1 to 25%; as for `CN(Cc1ccccc1C(F)(F)F)S(=O)(=O)CCc1ccccc1[N+](=O)[O-]`, 25 to 50%.
The same measure, in the same setting: as for `FC(F)n1ccnc1CCNCc1csc(COc2ccccc2)n1`, the figure is 51 to 75%; as for `OC(CNC(Cc1ccccc1)c1nc(-c2ccccc2)no1)COCc1ccccc1Cl` (stereo not shown), 25 to 50%; as for `COc1ccc(S(=O)(=O)N2CCCCCC2)cc1C(=O)NCCc1ccccc1C`, 1 to 25%.

Staying with this assay, now noted: 20 μM compound; read-out: % Inhibition at 20 μM KRas G12D Q61H.
With `COc1ccccc1CN(Cc1cccs1)C(=O)c1ccc(S(=O)(=O)N2CCOCC2)cc1`, the inhibition at 20 µM is 1 to 25%.
Consider `Cc1n[nH]c(C2CN(C(C)c3ccncc3)CCO2)n1` (stereo not shown), for which the inhibition at 20 µM was 25 to 50%.
The same measure, in the same setting: the figure for `Nc1nc(O)c2scc(-c3ccccc3Cl)c2n1` [drawing 2693] is 1 to 25%; for `FC(F)(F)c1ccnc(N2CCCC2c2cccs2)n1` (stereo not shown) it is 1 to 25%.
Same read-out and setting: the figure for `Cc1c(C(=O)N(c2ccccc2)C(C)C)cnn1-c1ccccn1` is 1 to 25%.
As to `Cc1noc(CN2CCOC(c3nc(-c4ccccc4)cs3)C2)n1` (stereo not shown), the inhibition at 20 µM is 1 to 25%.
Same read-out and setting: the figure for `CN(Cc1ccc(Br)cc1)Cc1ccc(C(=O)NCC(F)(F)F)cc1` is 1 to 25%; for `O=C(c1csc2c(O)nc(-c3ccccn3)nc12)N1CCOC(c2cccc(O)c2)C1` (stereo not shown) it is 51 to 75%.
The same measure, in the same setting: the figure for `COc1cc(N2CCN(C(=O)c3csc4c(O)nc(-c5ccccn5)nc34)CC2)ccc1O` [drawing 2820] is 1 to 25%; for `O=C(c1cc(-c2ccc(F)cc2)[nH]n1)N(Cc1ccco1)C1CCCC1` it is 1 to 25%.
On the same count and under the same terms, as for `CC1CN(c2nc(-c3ccccn3)nc3c2CCC3)C(C)CN1C` (stereo not shown), the figure is 25 to 50%; as for `O=C(CCCNc1ncccn1)Nc1nnc(-c2ccccn2)[nH]1`, 25 to 50%; as for `Cc1ccc(OCCSc2nnc(C(C)Oc3ccc(F)cc3)o2)cc1` (stereo not shown), 25 to 50%.
On to `O=c1[nH]c(-c2ccccn2)nc2ccc(F)cc12`, for which the inhibition at 20 µM fell in the range of 25 to 50%.
Same read-out and setting: the figure for `COc1ccccc1OCc1ccc(C(=O)N2CCCc3c(F)cc(F)cc32)o1` is 25 to 50%.
The same measure, in the same setting: as for `Cn1c(CNCc2ccccc2OCc2ccccc2)nc2ccccc21`, the figure is 25 to 50%.
For `N#Cc1ccc(CC(=O)Nc2ccnc(-c3ccccn3)n2)cc1` [drawing 2700], the inhibition at 20 µM lay in the range of 25 to 50%.
Still for that read-out and setting: as for `COc1ccccc1CN(Cc1cccs1)C(=O)c1ccc(C#N)cc1`, the figure is 25 to 50%; as for `COc1cc2c(cc1OC)CCN(C(=O)c1csc3c(O)nc(N)nc13)CC2` [drawing 2672], 25 to 50%; as for `CN(Cc1ccc(C(F)(F)F)cc1)Cc1cc2c(cc1O)CCC2`, 25 to 50%.
Still for that read-out and setting: the figure for `CN(Cc1ccccn1)Cc1nc2ccccc2n1C` is 25 to 50%; for `CC(C)Cc1noc(CN(C)CC23CC4CC(CC(C4)C2)C3)n1` it is 25 to 50%; for `CCCCN(C(=O)c1cnn(-c2ccccc2)n1)c1ccccc1` it is 25 to 50%.
Consider `CCn1c(SCc2csc(-c3cccc(OC)c3OC)n2)nc2cc(S(N)(=O)=O)ccc21`, for which the inhibition at 20 µM lay within 25 to 50%.
Still for that read-out and setting: as for `CC1(N)CCN(C(=O)c2csc3c(O)nc(N)nc23)CC1`, the figure is 1 to 25%; as for `CCOC(=O)c1ccc(C(=O)NCCc2ccc(C(F)(F)F)cc2)nc1C`, 25 to 50%; as for `CCOc1ccc(S(=O)(=O)N(CC(=O)N2CCc3ccccc32)Cc2ccco2)cc1`, 25 to 50%.
`COC(=O)c1ccc(C(=O)NCC(c2ccccc2)N2CCOCC2)nc1` (stereo not shown): the inhibition at 20 µM was 1 to 25%.
On to `CCN1CCN(c2nc(-c3ccccn3)nc3sc(-c4ccccc4)cc23)CC1`, for which the inhibition at 20 µM was in the range of 25 to 50%.
Same read-out and setting: the figure for `O=C(CCc1ccccn1)Nc1nnc(-c2ccccn2)[nH]1` is 25 to 50%.
The same measure, in the same setting: as for `COc1ccccc1CN(Cc1cccs1)C(=O)c1ccc(-c2nc(C)no2)cc1`, the figure is 1 to 25%; as for `COc1cccc(OCCn2c(CN3CCCCC3)nc3ccccc32)c1` [drawing 3032], 25 to 50%; as for `CC(C)c1ccc2nc(-c3ccccn3)[nH]c(=O)c2c1`, 25 to 50%.
On the same count and under the same terms, as for `Cc1oc(-c2ccccc2)nc1CN(C)CC(=O)Nc1ccc(N2CCOCC2)cc1`, the figure is 25 to 50%; as for `c1ccc(-c2csc3nc(-c4ccccn4)nc(NCCN4CCOCC4)c23)cc1`, 25 to 50%; as for `O=C(NCCc1cccs1)c1cc(S(=O)(=O)N2CCCCC2)ccc1N1CCOCC1`, 1 to 25%.
Regarding `Cc1ccc(S(=O)(=O)Nc2ccc(OS(=O)(=O)N(C)Cc3ccccc3)cc2)cc1`, the inhibition at 20 µM lay in the range of 25 to 50%.
On the same count and under the same terms, the figure for `Cc1nc(-c2ccc(F)cc2)sc1C(=O)NCCN(C)c1ccccc1` is 25 to 50%; for `O=C(c1ccc(COc2ccccc2)o1)N1CCCc2ccc(F)cc21` it is 25 to 50%.
Same read-out and setting: the figure for `CCc1cc(NNC(=O)c2ccc(C)s2)nc(-c2ccccn2)n1` is 25 to 50%.
Same read-out and setting: as for `COc1ccc(CCNC(=O)c2cc(S(=O)(=O)C3CCCCCC3)ccc2OC)cc1OC`, the figure is 25 to 50%; as for `COC(=O)CCN(Cc1cc(Br)cc(C(F)(F)F)c1)C1CCOCC1`, 1 to 25%; as for `COC(=O)CCN(Cc1ccc(F)c(F)c1)c1nc(C(F)(F)F)ccc1C#N`, 25 to 50%.
Regarding `Cc1ccc(C(C)C)cc1OS(=O)(=O)N1CCc2ccccc2C1`, the inhibition at 20 µM was 1 to 25%.

Still in this assay, the particulars now being: 20 μM; read-out: KRas G12D Q61H % Inh.
In the case of `Cc1ccc(C(=O)Nc2nnc(-c3ccccn3)[nH]2)cc1S(C)(=O)=O` [drawing 2461], the inhibition at 20 µM was in the range of 51 to 75%.
Same read-out and setting: as for `CCc1ccccc1OCC(=O)Nc1nnc(-c2ccccn2)[nH]1` [drawing 2530], the figure is 51 to 75%; as for `O=C(Nc1nnc(-c2ccccn2)[nH]1)C1CC1c1ccc(F)cc1` (stereo not shown) [drawing 2520], 51 to 75%.
Same read-out and setting: as for `O=C(CC1C=CCC1)Nc1nnc(-c2ccccn2)[nH]1` (stereo not shown) [drawing 2484], the figure is 51 to 75%.
For `N#Cc1cccc(OCC(=O)Nc2nnc(-c3ccccn3)[nH]2)c1` [drawing 2523], the inhibition at 20 µM was in the range of 51 to 75%.
On the same count and under the same terms, as for `O=C(Nc1nc(-c2ccccn2)cs1)c1ccc2nccnc2c1` [drawing 2570], the figure is 51 to 75%; as for `CSc1nc(C2CC2)cc(C(=O)NCCc2ccc(S(=O)(=O)NC(=O)c3cc(C4CC4)nc(SC)c3C#N)cc2)c1C#N` [drawing 2634], 51 to 75%; as for `CC(C)C1=C(O)C2(CC2c2ccc(-c3ccccc3)cc2)C(C)CC1` (stereo not shown) [drawing 2635], 25 to 50%.
Same read-out and setting: the figure for `CC(C)(C)c1noc(CCC(=O)Nc2nnc(-c3ccccn3)[nH]2)n1` [drawing 2493] is 51 to 75%; for `O=c1nc(-c2ccccn2)[nH]c2scc(-c3cccs3)c12` [drawing 2583] it is 51 to 75%; for `O=C(COc1ccccc1)Nc1nnc(-c2ccccn2)[nH]1` [drawing 2545] it is 51 to 75%.

(Values after patent publication US10940139B2, “Compounds that interact with the Ras superfamily for the treatment of cancers, inflammatory diseases, rasopathies, and fibrotic disease” (Shy Therapeutics LLC, priority 2017, dated 2021).)
